Measurements as given in patent US8802597B2, “Herbicidal pyrimidines” (E I du Pont de Nemours and Company, priority 2003, dated 2014).

Columns and labels:
Experiment in all cases: Test G pre/postemergence
Type in all cases: in vivo
[1] = test system: spanishneedles (Bidens bipinnata); conditions: Postemergence, scale 0 to 100
How it was run: (§1)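 Pre- and postemergence greenhouse test; compound in non-phytotoxic solvent/surfactant mix. Post timing: 2–18 cm plants, 1- to 4-leaf. Visual rating vs controls at 12–21 d, 0 (no effect) to 100 (complete control).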

[2] = test system: broadleaf signalgrass (Brachiaria platyphylla)
How it was run: as §1

[3] = test system: large crabgrass (Digitaria sanguinalis)
How it was run: as §1

[4] = test system: barnyardgrass (Echinochloa crus-galli)
How it was run: as §1

[5] = test system: common purslane (Portulaca oleracea)
How it was run: as §1

[6] = test system: dallisgrass (Paspalum dilatatum)
How it was run: as §1

[7] = test system: annual bluegrass (Poa annua)
How it was run: as §1

[8] = test system: pitted morningglory (Ipomoea lacunosa)
How it was run: as §1

kochia (Kochia scoparia) = test system: kochia (Kochia scoparia)
How it was run: as §1

[9] = test system: purple nutsedge (Cyperus rotundus)
How it was run: as §1

[10] = test system: common sowthistle (Sonchus oleraceous)
How it was run: as §1

[11] = Postemergence, 250 g ai/ha, scale 0 to 100
[12] = Postemergence, 16 g ai/ha, scale 0 to 100
[13] = Postemergence, 31 g ai/ha, scale 0 to 100
[14] = Postemergence, 62 g ai/ha, scale 0 to 100
[15] = Postemergence, 125 g ai/ha, scale 0 to 100
[16] = Preemergence, 16 g ai/ha, scale 0-100
[17] = Preemergence, 31 g ai/ha, scale 0-100
[18] = Preemergence, 62 g ai/ha, scale 0-100
[19] = Preemergence, 125 g ai/ha, scale 0-100
[20] = Preemergence, 250 g ai/ha, scale 0-100

## Nc1nc(C2CC2)nc(C(=O)[O-])c1Cl.[Na+] [Compound 77, 6-amino-5-chloro-2-cyclopropyl-4-pyrimidinecarboxylic acid monosodium salt]
[1]; 250 g ai/ha
  Plant response rating, Spanishneedles: 98
[1]; 16 g ai/ha
  Plant response rating, Spanishneedles: 75
[1]; 31 g ai/ha
  Plant response rating, Spanishneedles: 95
[1]; 62 g ai/ha
  Plant response rating, Spanishneedles: 98
[1]; 125 g ai/ha
  Plant response rating, Spanishneedles: 98
[2]; [11]
  Plant response rating, Signalgrass: 70
[2]; [12]
  Plant response rating, Signalgrass: 0
[2]; [13]
  Plant response rating, Signalgrass: 30
[2]; [14]
  Plant response rating, Signalgrass: 50
[2]; [15]
  Plant response rating, Signalgrass: 60
[2]; [16]
  Plant response rating, Signalgrass: 5
[2]; [17]
  Plant response rating, Signalgrass: 10
[2]; [18]
  Plant response rating, Signalgrass: 75
[2]; [19]
  Plant response rating, Signalgrass: 90
[2]; [20]
  Plant response rating, Signalgrass: 95
[3]; [11]
  Plant response rating, Crabgrass, Large: 75
[3]; [12]
  Plant response rating, Crabgrass, Large: 60
[3]; [13]
  Plant response rating, Crabgrass, Large: 70
[3]; [14]
  Plant response rating, Crabgrass, Large: 75
[3]; [15]
  Plant response rating, Crabgrass, Large: 75
[3]; [16]
  Plant response rating, Crabgrass, Large: 45
[3]; [17]
  Plant response rating, Crabgrass, Large: 45
[3]; [18]
  Plant response rating, Crabgrass, Large: 80
[3]; [19]
  Plant response rating, Crabgrass, Large: 85
[3]; [20]
  Plant response rating, Crabgrass, Large: 90
[4]; [11]
  Plant response rating, Barnyardgrass: 75
[4]; [12]
  Plant response rating, Barnyardgrass: 0
[4]; [13]
  Plant response rating, Barnyardgrass: 10
[4]; [14]
  Plant response rating, Barnyardgrass: 40
[4]; [15]
  Plant response rating, Barnyardgrass: 65
[4]; [16]
  Plant response rating, Barnyardgrass: 50
[4]; [17]
  Plant response rating, Barnyardgrass: 55
[4]; [18]
  Plant response rating, Barnyardgrass: 75
[4]; [19]
  Plant response rating, Barnyardgrass: 85
[4]; [20]
  Plant response rating, Barnyardgrass: 90
[5]; [11]
  Plant response rating, Purslane: 85
[5]; [12]
  Plant response rating, Purslane: 20
[5]; [13]
  Plant response rating, Purslane: 20
[5]; [14]
  Plant response rating, Purslane: 60
[5]; [15]
  Plant response rating, Purslane: 70
[5]; [16]
  Plant response rating, Purslane: 45
[5]; [17]
  Plant response rating, Purslane: 60
[5]; [18]
  Plant response rating, Purslane: 75
[5]; [19]
  Plant response rating, Purslane: 100
[5]; [20]
  Plant response rating, Purslane: 100
[6]; [11]
  Plant response rating, Dallisgrass: 50
[6]; [12]
  Plant response rating, Dallisgrass: 0
[6]; [13]
  Plant response rating, Dallisgrass: 0
[6]; [14]
  Plant response rating, Dallisgrass: 15
[6]; [15]
  Plant response rating, Dallisgrass: 35
[6]; [16]
  Plant response rating, Dallisgrass: 0
[6]; [17]
  Plant response rating, Dallisgrass: 5
[6]; [18]
  Plant response rating, Dallisgrass: 15
[6]; [19]
  Plant response rating, Dallisgrass: 30
[6]; [20]
  Plant response rating, Dallisgrass: 85
[7]; [11]
  Plant response rating, Bluegrass: 40
[7]; [12]
  Plant response rating, Bluegrass: 0
[7]; [13]
  Plant response rating, Bluegrass: 0
[7]; [14]
  Plant response rating, Bluegrass: 0
[7]; [15]
  Plant response rating, Bluegrass: 40
[7]; [16]
  Plant response rating, Bluegrass: 0
[7]; [17]
  Plant response rating, Bluegrass: 0
[7]; [18]
  Plant response rating, Bluegrass: 5
[7]; [19]
  Plant response rating, Bluegrass: 20
[7]; [20]
  Plant response rating, Bluegrass: 40
[8]; [11]
  Plant response rating, Morningglory: 100
[8]; [12]
  Plant response rating, Morningglory: 50
[8]; [13]
  Plant response rating, Morningglory: 60
[8]; [14]
  Plant response rating, Morningglory: 90
[8]; [15]
  Plant response rating, Morningglory: 100
[8]; [16]
  Plant response rating, Morningglory: 70
[8]; [17]
  Plant response rating, Morningglory: 90
[8]; [18]
  Plant response rating, Morningglory: 100
[8]; [19]
  Plant response rating, Morningglory: 100
[8]; [20]
  Plant response rating, Morningglory: 100
Kochia (Kochia scoparia); [11]
  Plant response rating, Kochia: 98
Kochia (Kochia scoparia); [12]
  Plant response rating, Kochia: 90
Kochia (Kochia scoparia); [13]
  Plant response rating, Kochia: 95
Kochia (Kochia scoparia); [14]
  Plant response rating, Kochia: 98
Kochia (Kochia scoparia); [15]
  Plant response rating, Kochia: 98
Kochia (Kochia scoparia); [16]
  Plant response rating, Kochia: 85
Kochia (Kochia scoparia); [17]
  Plant response rating, Kochia: 95
Kochia (Kochia scoparia); [18]
  Plant response rating, Kochia: 95
Kochia (Kochia scoparia); [19]
  Plant response rating, Kochia: 100
Kochia (Kochia scoparia); [20]
  Plant response rating, Kochia: 100
[9]; [11]
  Plant response rating, Nutsedge, Purple: 40
[9]; [12]
  Plant response rating, Nutsedge, Purple: 0
[9]; [13]
  Plant response rating, Nutsedge, Purple: 0
[9]; [14]
  Plant response rating, Nutsedge, Purple: 0
[9]; [15]
  Plant response rating, Nutsedge, Purple: 0
[9]; [16]
  Plant response rating, Nutsedge, Purple: 100
[9]; [17]
  Plant response rating, Nutsedge, Purple: 100
[9]; [18]
  Plant response rating, Nutsedge, Purple: 100
[9]; [19]
  Plant response rating, Nutsedge, Purple: 100
[9]; [20]
  Plant response rating, Nutsedge, Purple: 100
[10]; [11]
  Plant response rating, Sowthistle: 95
[10]; [12]
  Plant response rating, Sowthistle: 75
[10]; [13]
  Plant response rating, Sowthistle: 90
[10]; [14]
  Plant response rating, Sowthistle: 90
[10]; [15]
  Plant response rating, Sowthistle: 95
[10]; [16]
  Plant response rating, Sowthistle: 80
[10]; [17]
  Plant response rating, Sowthistle: 100
[10]; [18]
  Plant response rating, Sowthistle: 100
[10]; [19]
  Plant response rating, Sowthistle: 100
[10]; [20]
  Plant response rating, Sowthistle: 100
